Counter-ions that a name gives are not always drawn.
Target: T1, mGluR5 receptor (Sus scrofa, UniProt I3LUI7)
T1 construct: 450 μg of protein from brain homogenate with 5 nM ^3[H]-MPEP; from tissue; host or cells: pig brain halves without medulla, cerebellum and pons
Assay: [3H]-MPEP mGluR5 receptor binding assay (pig brain homogenate)
Conditions: 5 nM [3H]-MPEP; for IC50: read-out: IC50 mGluR5 Receptor (pig) [^3H]-MPEP Bond; for inhibition at 10 µM / % Inhibition of mGluR5 Receptor (pig) [^3H]-MPEP Bond at 10 μM: 10 μM compound; for inhibition at 10 µM: read-out: % Inhibition of mGluR5 Receptor (pig) [^3H]-MPEP Bond at 10 μM
Procedure: I. Method for Determining the Inhibition of the [^3H]-MPEP Bond in the mGluR5 Receptor Binding Assay
Pig brain homogenate is produced by homogenizing (Polytron PT 3000, Kinematica AG, 10 000 rpm for 90 seconds) pig brain halves without medulla, cerebellum and pons in pH 8.0 buffer (20 mM Hepes, Sigma, order no. H3375+1 complete tablet, 100 ml, Roche Diagnostics, order no. 1836145) in the ratio of 1:20 (brain weight/volume) and differential centrifuging at 900×g and 40 000×g. In incubation batches of 250 μl in 96-well microtitre plates 450 μg of protein from brain homogenate with 5 nM ^3[H]-MPEP (Tocris, order no. R1212) (MPEP=[…]) and the compounds to be examined (10 μM in test) in buffer (as above) are respectively incubated at room temperature for 60 minutes.
The batches are then filtered using a Brandel cell harvester (Brandel, Robotic 9600) on unifilter plates with fibreglass filter mats (Perkin Elmer, order no. 6005177) and then washed with buffer (as above) 3-times each with 250 μl per sample. The filter plates are then dried for 60 mins. at 55° C. Then, 30 μL of Ultima Gold™ scintillator (Packard BioScience, order no. 6013159) are added per well and after 3 hours the samples are measured on the β-counter (MicroBeta, Perkin Elmer). The non-specific binding is determined by adding 10 μM of MPEP (Tocris, order no. 1212).

T1 sequence (I3LUI7 19-1212): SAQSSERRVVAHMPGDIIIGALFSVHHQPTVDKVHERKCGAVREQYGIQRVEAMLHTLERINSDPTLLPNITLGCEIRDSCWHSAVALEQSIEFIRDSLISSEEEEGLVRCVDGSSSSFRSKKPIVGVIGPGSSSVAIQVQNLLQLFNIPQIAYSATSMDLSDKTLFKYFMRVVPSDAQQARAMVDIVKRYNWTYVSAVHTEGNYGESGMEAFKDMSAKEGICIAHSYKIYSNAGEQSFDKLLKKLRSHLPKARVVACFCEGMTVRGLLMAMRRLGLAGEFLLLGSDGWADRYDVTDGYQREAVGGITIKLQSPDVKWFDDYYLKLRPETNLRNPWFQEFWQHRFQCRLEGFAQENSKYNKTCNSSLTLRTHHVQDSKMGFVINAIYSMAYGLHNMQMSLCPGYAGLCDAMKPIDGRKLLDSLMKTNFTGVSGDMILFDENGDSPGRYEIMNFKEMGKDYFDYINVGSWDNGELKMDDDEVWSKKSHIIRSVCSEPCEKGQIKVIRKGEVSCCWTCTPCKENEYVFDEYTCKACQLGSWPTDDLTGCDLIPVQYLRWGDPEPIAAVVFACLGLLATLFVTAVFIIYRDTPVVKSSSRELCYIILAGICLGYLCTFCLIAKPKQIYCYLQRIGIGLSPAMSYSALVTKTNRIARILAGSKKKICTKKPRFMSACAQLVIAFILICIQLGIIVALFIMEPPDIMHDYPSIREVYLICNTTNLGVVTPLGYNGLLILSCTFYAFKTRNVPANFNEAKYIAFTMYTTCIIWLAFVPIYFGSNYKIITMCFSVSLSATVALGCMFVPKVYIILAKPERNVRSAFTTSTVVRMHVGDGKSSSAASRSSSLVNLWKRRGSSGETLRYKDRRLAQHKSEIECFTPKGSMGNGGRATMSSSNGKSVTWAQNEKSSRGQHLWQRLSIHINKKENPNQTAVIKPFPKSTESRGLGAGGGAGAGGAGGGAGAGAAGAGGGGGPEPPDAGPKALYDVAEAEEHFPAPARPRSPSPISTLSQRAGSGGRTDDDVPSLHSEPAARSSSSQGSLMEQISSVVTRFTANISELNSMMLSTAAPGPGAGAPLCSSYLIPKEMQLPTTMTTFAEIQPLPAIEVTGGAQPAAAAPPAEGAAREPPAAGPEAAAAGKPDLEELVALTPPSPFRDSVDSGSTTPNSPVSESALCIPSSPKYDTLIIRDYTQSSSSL

| inhibition at 10 µM | SMILES | also measured |
| --- | --- | --- |
| – | COCC(=O)N(Cc1cccc(-c2ccc3ncnc(NC4CC4)c3c2)c1)C1CC1 [Example 252, N-cyclopropyl-N-[3-(4-cyclopropylamino-quinazolin-6-yl)-benzyl]-2-methoxy-acetamide] | IC50: 920 nM |
| 41% | O=C1C=CC(=O)N1Cc1cc(-c2ccc3ncnc(NC4CC4)c3c2)ccc1F [Example 192, 1-(5-(4-(cyclopropylamino)quinazolin-6-yl)-2-fluorobenzyl)-1H-pyrrole-2,5-dione] | – |
| 88% | O=C(c1ccncc1)N(Cc1cccc(-c2ccc3ncnc(NC4CC4)c3c2)c1)C1CC1 [Example 165, N-cyclopropyl-N-[3-(4-cyclopropylamino-quinazolin-6-yl)-benzyl]-isonicotinamide] | – |
| 95% | Cc1cc2ncnc(NC3CC3)c2cc1-c1cccc(CN(C(=O)c2ccccc2)C2CC2)c1 [Example 714, N-cyclopropyl-N-(3-(4-(cyclopropylamino)-7-methylquinazolin-6-yl)benzyl)benzamide] | – |
| 62% | CNc1ncnc2ccc(-c3ccc(F)c(CN(C)S(=O)(=O)Cc4ccccc4)c3)cc12 [Example 586, N-(2-fluoro-5-(4-(methylamino)quinazolin-6-yl)benzyl)-N-methyl-1-phenylmethane sulfonamide] | – |
| 90% | Cc1cc2ncnc(NC3CC3)c2cc1-c1cccc(CN(C(=O)c2ccccn2)C2CC2)c1 [Example 699, N-cyclopropyl-N-(3-(4-(cyclopropylamino)-7-methylquinazolin-6-yl)benzyl)picolinamide] | – |
| – | CC(c1cccc(-c2ccc3ncnc(NC4CC4)c3c2)c1)N(C1CC1)S(C)(=O)=O (stereo not drawn) [Example 231, N-cyclopropyl-N-(1-(3-(4-(cyclopropylamino)quinazolin-6-yl)phenyl)ethyl)methane sulfonamide] | IC50: 5720 nM |
| – | CC(C)(C)Nc1ncnc2ccc(-c3ccc(F)c(CN(C4CC4)S(C)(=O)=O)c3)cc12 [Example 827, N-(5-(4-(tert-butylamino)quinazolin-6-yl)-2-fluorobenzyl)-N-cyclopropyl methane sulfonamide] | % Inhibition of mGluR5 Receptor (pig) [^3H]-MPEP Bond at 10 μM: 87% |
| 34% | O=S1(=O)CCCN1Cc1cccc(-c2ccc3ncnc(NC4CC4)c3c2)c1 [Example 206, cyclopropyl-{6-[3-(1,1-dioxo-1λ^6-isothiazolidin-2-ylmethyl)-phenyl]-quinazoline-4-yl}-amine; hydrochloride] | – |
| 89% | O=C(c1cccc(F)c1)N(Cc1cc(-c2ccc3ncnc(NC4CC4)c3c2)ccc1Cl)C1CC1 [Example 791, N-(2-chloro-5-(4-(cyclopropylamino)quinazolin-6-yl)benzyl)-N-cyclopropyl-3-fluorobenzamide] | – |
| 33% | O=C1c2ccccc2C(=O)N1Cc1cccc(-c2ccc3ncnc(NC4CC4)c3c2)c1 [Example 241, 2-[3-(4-cyclopropylamino-quinazolin-6-yl)-benzyl]-isoindole-1,3-dione; hydrochloride] | – |
| 85% | COCC(=O)N(Cc1cccc(-c2cc3c(NC4CC4)ncnc3cc2C)c1)C1CC1 [Example 797, N-cyclopropyl-N-(3-(4-(cyclopropylamino)-7-methylquinazolin-6-yl)benzyl)-2-methoxyacetamide] | – |
| – | CCCCN(Cc1cccc(-c2ccc3ncnc(NC4CC4)c3c2)c1)C(C)=O [Example 218, N-butyl-N-[3-(4-cyclopropylamino-quinazolin-6-yl)-benzyl]-acetamide; hydrochloride] | IC50: 2990 nM |
| 58% | O=C(C1CCCCC1)N(Cc1cc(-c2ccc3ncnc(NC4CC4)c3c2)ccn1)C1CC1 [Example 835, N-cyclopropyl-N-((4-(4-(cyclopropylamino)quinazolin-6-yl)pyridin-2-yl)methyl)cyclohexane carboxamide] | – |
| – | O=C(CC(F)(F)F)N(Cc1cc(-c2ccc3ncnc(NC4CC4)c3c2)ccc1F)C1CC1 [Example 282, N-cyclopropyl-N-(5-(4-(cyclopropylamino)quinazolin-6-yl)-2-fluorobenzyl)-3,3,3-trifluoropropanamide] | IC50: 50 nM |
| 40% | Cc1cccc(CNc2ncnc3ccc(-c4cccc(CN(C(=O)c5ccncc5)C5CC5)c4)cc23)c1 [Example 403, N-cyclopropyl-N-(3-(4-(3-methylbenzylamino)quinazolin-6-yl)benzyl)isonicotinamide] | – |
| 59% | O=C(c1ccncc1)N(Cc1cccc(-c2ccc3ncnc(NCCc4ccccc4)c3c2)c1)C1CC1 [Example 377, N-cyclopropyl-N-(3-(4-(phenethylamino)quinazolin-6-yl)benzyl)isonicotinamide] | – |

| inhibition at 10 µM | SMILES | also measured |
| --- | --- | --- |
| – | CC(C)S(=O)(=O)N(Cc1cc(-c2ccc3ncnc(NC4CC4)c3c2)ccc1Cl)C1CC1 [Example 854, N-(2-chloro-5-(4-(cyclopropylamino)quinazolin-6-yl)benzyl)-N-cyclopropyl propane-2-sulfonamide] | % Inhibition of mGluR5 Receptor (pig) [^3H]-MPEP Bond at 10 μM: 75% |
| 54% | O=C(C1CCCCC1)N(Cc1cccc(-c2cc(F)c3ncnc(NC4CC4)c3c2)c1)C1CC1 [Example 662, N-cyclopropyl-N-(3-(4-(cyclopropylamino)-8-fluoroquinazolin-6-yl)benzyl)cyclohexane carboxamide] | – |
| – | CC(=O)N(Cc1cc(-c2ccc3ncnc(NC4CC4)c3c2)ccc1F)C(C)(C)C [Example 279, N-tert-butyl-N-(5-(4-(cyclopropylamino)quinazolin-6-yl)-2-fluorobenzyl)acetamide] | IC50: 9420 nM |
| – | CC(=O)N(Cc1cccc(-c2cc3c(NC4CC4)ncnc3cc2C)c1)C1CC1 [Example 710, N-cyclopropyl-N-(3-(4-(cyclopropylamino)-7-methylquinazolin-6-yl)benzyl)acetamide] | IC50: 110 nM |
| 61% | CCCN(Cc1cccc(-c2ccc3ncnc(Nc4ccccc4)c3c2)c1)C(=O)c1ccccn1 [Example 95, pyridine-2-carboxylic acid [3-(4-phenylamino-quinazolin-6-yl)-benzyl]-propyl-amide] | – |
| 67% | COc1ccc(C(=O)N(Cc2ccccc2)Cc2cccc(-c3ccc4ncnc(NC(C)C)c4c3)c2)cc1 [Example 155, N-benzyl-N-[3-(4-isopropylamino-quinazolin-6-yl)-benzyl]-4-methoxy-benzamide] | – |
| – | O=S(=O)(c1ccccc1)N(Cc1cc(-c2ccc3ncnc(NC4CC4)c3c2)ccc1F)C1CC1 [Example 368, N-cyclopropyl-N-(5-(4-(cyclopropylamino)quinazolin-6-yl)-2-fluorobenzyl)benzole sulfonamide] | % Inhibition of mGluR5 Receptor (pig) [^3H]-MPEP Bond at 10 μM: 85% |
| – | N#CCC(=O)N(Cc1cccc(-c2ccc3ncnc(NC4CC4)c3c2)c1F)C1CC1 [Example 197, 2-cyano-N-cyclopropyl-N-[3-(4-cyclopropylamino-quinazolin-6-yl)-2-fluoro-benzyl]-acetamide] | IC50: 660 nM |
| 42% | O=C(c1cc(Cl)cc(Cl)c1)N(Cc1cc(-c2ccc3ncnc(NC4CC4)c3c2)ccn1)C1CC1 [Example 750, 3,5-dichloro-N-cyclopropyl-N-((4-(4-(cyclopropylamino)quinazolin-6-yl)pyridin-2-yl)methyl)benzamide] | – |
| – | CCCCC(=O)N(C)Cc1cc(-c2ccc3ncnc(NCc4ccccc4)c3c2)ccc1F [Example 549, N-(5-(4-(benzylamino)quinazolin-6-yl)-2-fluorobenzyl)-N-methyl pentanamide] | % Inhibition of mGluR5 Receptor (pig) [^3H]-MPEP Bond at 10 μM: 32% |
| – | CC(=O)N(Cc1cc(-c2ccc3ncnc(NC4CC4)c3c2)ccc1Cl)C1CC1 [Example 777, N-(2-chloro-5-(4-(cyclopropylamino)quinazolin-6-yl)benzyl)-N-cyclopropyl acetamide] | IC50: 50 nM |
| – | Fc1ccc(-c2ccc3ncnc(NC4CC4)c3c2)cc1CNC1CC1 [Example 299, N-cyclopropyl-6-(3-((cyclopropylamino)methyl)-4-fluorophenyl)quinazoline-4-amine] | IC50: 2010 nM |
| – | O=C(c1ccncc1)N(Cc1cc(-c2ccc3ncnc(NC4CC4)c3c2)ccc1Cl)C1CC1 [Example 763, N-(2-chloro-5-(4-(cyclopropylamino)quinazolin-6-yl)benzyl)-N-cyclopropyl isonicotinamide] | % Inhibition of mGluR5 Receptor (pig) [^3H]-MPEP Bond at 10 μM: 86% |
| 42% | CC(C)Nc1ncnc2ccc(-c3cccc(CN(Cc4ccccc4)C(=O)c4ccccc4)c3)cc12 [Example 36, N-benzyl-N-[3-(4-isopropylamino-quinazolin-6-yl)-benzyl]-benzamide] | – |
| 47% | Cc1ccc(C(=O)N(Cc2ccccc2)Cc2cccc(-c3ccc4ncnc(NC(C)C)c4c3)c2)cc1 [Example 54, N-benzyl-N-[3-(4-isopropylamino-quinazolin-6-yl)-benzyl]-4-methyl-benzamide] | – |
| 40% | N#CCC(=O)N(Cc1cccc(-c2ccc3ncnc(NC4CC4)c3c2)c1)c1cccnc1 [Example 195, 2-cyano-N-[3-(4-cyclopropylamino-quinazolin-6-yl)-benzyl]-N-pyridin-3-yl-acetamide] | – |
